How the values were obtained:
Assay type in all cases: in vivo
[1] = tested on: corn (Krasnodar 385 MV variety); assay: Corn seed treatment with BHMPA salts: germinating power
Procedure, shortened: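 Seeds (50 per Petri dish on two layers of filter paper) soaked 1 h in BHMPA or its Ca, Mg, Na, Co, Mn, Cu or Zn salts at 1·10^−6-1·10^−12%, with water controls. Germination energy read on day 4, germination on day 8 (wheat) or day 7 (rice, corn), as % means of four replicates. Germinating power taken as root and sprout length plus wet and dry mass per 100 seedlings.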

rice (Diamant variety) = assay: Rice seed treatment with BHMPA salts: germination energy and germination rate
Procedure, shortened: (§1)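 Corn, winter wheat and rice seeds (50 per dish, on filter paper) were soaked for 1 h in BHMPA or its metal salts at 1·10^−6-1·10^−12%, with water as control. Germination energy was read on day 4 and germination rate on day 8 for wheat and day 7 for rice and corn, following GOST 12038-84, as the mean of four replicates.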

[2] = tested on: winter wheat (Vershin variety); assay: Winter wheat seed treatment with BHMPA salts: germination energy and germination rate
Procedure, shortened: as §1

[3] = corn seeds, solution concentration 1 · 10^−6%, manganese salt of BHMPA
[4] = corn seeds, solution concentration 1 · 10^−7%, manganese salt of BHMPA
[5] = corn seeds, solution concentration 1 · 10^−8%, manganese salt of BHMPA
[6] = corn seeds, solution concentration 1 · 10^−9%, manganese salt of BHMPA
[7] = corn seeds, solution concentration 1 · 10^−10%, manganese salt of BHMPA
[8] = corn seeds, solution concentration 1 · 10^−11%, manganese salt of BHMPA
[9] = corn seeds, solution concentration 1 · 10^−12%, manganese salt of BHMPA
[10] = rice seed treatment, solution 1 · 10^−9%
[11] = seed treatment, concentration 1 · 10^−6%
[12] = seed treatment, concentration 1 · 10^−7%
[13] = seed treatment, concentration 1 · 10^−8%
[14] = seed treatment, concentration 1 · 10^−9%
[15] = seed treatment, concentration 1 · 10^−10%
[16] = seed treatment, concentration 1 · 10^−11%
[17] = seed treatment, concentration 1 · 10^−12%
[18] = winter wheat Vershin, 1·10^−6% solution
[19] = winter wheat Vershin, 1·10^−7% solution
[20] = winter wheat Vershin, 1·10^−8% solution
[21] = winter wheat Vershin, 1·10^−9% solution
[22] = winter wheat Vershin, 1·10^−10% solution
[23] = winter wheat Vershin, 1·10^−11% solution
[24] = winter wheat Vershin, 1·10^−12% solution
[25] = winter wheat, comparative study vs Melaphen, 1·10^−9% solution

Structure (SMILES): O.O.O=P([O-])(CO)CO.O=P([O-])(CO)CO.[Mn+2] [Mn-salt, Manganese BHMPA Salt]
- optimum concentration for treating corn seeds before sowing ([1]; corn): 1·10^−9%
- Length, root [1, 3]: 4.6 cm
- Length, root, + % to control [1, 3]: −4%
- Length, sprout [1, 3]: 2.8 cm
- Length, sprout, + % to control [1, 3]: −18%
- Mass, dry, root [1, 3]: 1.47 g/100 plantlings
- Mass, dry, root, + % to control [1, 3]: 6%
- Mass, dry, sprout [1, 3]: 0.83 g/100 plantlings
- Mass, dry, sprout, + % to control [1, 3]: 5%
- Mass, wet, root [1, 3]: 9.87 g/100 plantlings
- Mass, wet, root, + % to control [1, 3]: 12%
- Mass, wet, sprout [1, 3]: 5.92 g/100 plantlings
- Mass, wet, sprout, + % to control [1, 3]: 0%
- Length, root [1, 4]: 5.0 cm
- Length, root, + % to control [1, 4]: 4%
- Length, sprout [1, 4]: 3.1 cm
- Length, sprout, + % to control [1, 4]: −9%
- Mass, dry, root [1, 4]: 1.55 g/100 plantlings
- Mass, dry, root, + % to control [1, 4]: 11.5%
- Mass, dry, sprout [1, 4]: 0.89 g/100 plantlings
- Mass, dry, sprout, + % to control [1, 4]: 13%
- Mass, wet, root [1, 4]: 10.61 g/100 plantlings
- Mass, wet, root, + % to control [1, 4]: 20%
- Mass, wet, sprout [1, 4]: 6.63 g/100 plantlings
- Mass, wet, sprout, + % to control [1, 4]: 12%
- Length, root [1, 5]: 5.4 cm
- Length, root, + % to control [1, 5]: 12.5%
- Length, sprout [1, 5]: 3.6 cm
- Length, sprout, + % to control [1, 5]: 6%
- Mass, dry, root [1, 5]: 1.69 g/100 plantlings
- Mass, dry, root, + % to control [1, 5]: 21.5%
- Mass, dry, sprout [1, 5]: 1.05 g/100 plantlings
- Mass, dry, sprout, + % to control [1, 5]: 33%
- Mass, wet, root [1, 5]: 11.92 g/100 plantlings
- Mass, wet, root, + % to control [1, 5]: 35%
- Mass, wet, sprout [1, 5]: 7.03 g/100 plantlings
- Mass, wet, sprout, + % to control [1, 5]: 19%
- Length, root [1, 6]: 5.8 cm
- Length, root, + % to control [1, 6]: 21%
- Length, sprout [1, 6]: 3.9 cm
- Length, sprout, + % to control [1, 6]: 15%
- Mass, dry, root [1, 6]: 1.82 g/100 plantlings
- Mass, dry, root, + % to control [1, 6]: 31%
- Mass, dry, sprout [1, 6]: 1.25 g/100 plantlings
- Mass, wet, root [1, 6]: 12.62 g/100 plantlings
- Mass, wet, root, + % to control [1, 6]: 43%
- Mass, wet, sprout [1, 6]: 7.69 g/100 plantlings
- Mass, wet, sprout, + % to control [1, 6]: 30%
- Length, root [1, 7]: 5.5 cm
- Length, root, + % to control [1, 7]: 14.5%
- Length, sprout [1, 7]: 3.7 cm
- Length, sprout, + % to control [1, 7]: 9%
- Mass, dry, root [1, 7]: 1.72 g/100 plantlings
- Mass, dry, root, + % to control [1, 7]: 24%
- Mass, dry, sprout [1, 7]: 1.17 g/100 plantlings
- Mass, dry, sprout, + % to control [1, 7]: 48%
- Mass, wet, root [1, 7]: 12.06 g/100 plantlings
- Mass, wet, root, + % to control [1, 7]: 36.5%
- Mass, wet, sprout [1, 7]: 7.29 g/100 plantlings
- Mass, wet, sprout, + % to control [1, 7]: 23.5%
- Length, root [1, 8]: 5.3 cm
- Length, root, + % to control [1, 8]: 10%
- Length, sprout [1, 8]: 3.4 cm
- Length, sprout, + % to control [1, 8]: 0%
- Mass, dry, root [1, 8]: 1.61 g/100 plantlings
- Mass, dry, root, + % to control [1, 8]: 16%
- Mass, dry, sprout [1, 8]: 0.92 g/100 plantlings
- Mass, dry, sprout, + % to control [1, 8]: 16%
- Mass, wet, root [1, 8]: 11.78 g/100 plantlings
- Mass, wet, root, + % to control [1, 8]: 33%
- Mass, wet, sprout [1, 8]: 6.91 g/100 plantlings
- Mass, wet, sprout, + % to control [1, 8]: 17%
- Length, root [1, 9]: 4.9 cm
- Length, root, + % to control [1, 9]: 2%
- Length, sprout [1, 9]: 2.9 cm
- Length, sprout, + % to control [1, 9]: −15%
- Mass, dry, root [1, 9]: 1.47 g/100 plantlings
- Mass, dry, root, + % to control [1, 9]: 6%
- Mass, dry, sprout [1, 9]: 0.79 g/100 plantlings
- Mass, dry, sprout, + % to control [1, 9]: 0%
- Mass, wet, root [1, 9]: 10.88 g/100 plantlings
- Mass, wet, root, + % to control [1, 9]: 23%
- Mass, wet, sprout [1, 9]: 6.28 g/100 plantlings
- Mass, wet, sprout, + % to control [1, 9]: 6%
- effectiveness on germinating power ([1]; corn, 1·10^−6%, 1·10^−7%, 1·10^−11% and 1·10^−12% solutions): ineffective
- Length, root, + % to control ([1]; corn, 1·10^−9% solution): 21%
- Length, sprout, + % to control ([1]; corn, 1·10^−9% solution): 15%
- Mass, dry, root, + % to control ([1]; corn, 1·10^−9% solution): 31%
- Mass, dry, sprout, + % to control ([1]; corn, 1·10^−9% solution): 58%
- Mass, wet, root, + % to control ([1]; corn, 1·10^−9% solution): 43%
- Mass, wet, sprout, + % to control ([1]; corn, 1·10^−9% solution): 30%
- Germination energy, % (rice (Diamant variety); [10]): 86.7%
- Germination rate, % (rice (Diamant variety); [10]): 93.0%
- Germination energy (rice (Diamant variety); rice, 1·10^−9% solution): 85.3%
- Germination rate (rice (Diamant variety); rice, 1·10^−9% solution): 91.7%
- Germination energy (rice (Diamant variety); [11]): 77.0%
- Germination rate (rice (Diamant variety); [11]): 82.7%
- Germination energy (rice (Diamant variety); [12]): 79.3%
- Germination rate (rice (Diamant variety); [12]): 85.0%
- Germination energy (rice (Diamant variety); [13]): 82.7%
- Germination rate (rice (Diamant variety); [13]): 86.7%
- Germination energy (rice (Diamant variety); [14]): 85.3%
- Germination rate (rice (Diamant variety); [14]): 91.7%
- Germination energy (rice (Diamant variety); [15]): 83.3%
- Germination rate (rice (Diamant variety); [15]): 88.3%
- Germination energy (rice (Diamant variety); [16]): 81.0%
- Germination rate (rice (Diamant variety); [16]): 86.0%
- Germination energy (rice (Diamant variety); [17]): 78.0%
- Germination rate (rice (Diamant variety); [17]): 83.0%
- Germination energy [2, 18]: 72.0%
- Germination rate [2, 18]: 69.3%
- Germination energy [2, 19]: 73.6%
- Germination rate [2, 19]: 76.0%
- Germination energy [2, 20]: 77.9%
- Germination rate [2, 20]: 82.7%
- Germination energy [2, 21]: 85.5%
- Germination rate [2, 21]: 88.7%
- Germination energy [2, 22]: 83.0%
- Germination rate [2, 22]: 85.3%
- Germination energy [2, 23]: 76.1%
- Germination rate [2, 23]: 78.8%
- Germination energy [2, 24]: 71.6%
- Germination rate [2, 24]: 74.0%
- Germination energy [2, 25]: 88.0%
- Germination rate [2, 25]: 93.7%
